This is an account of results in ChEMBL document CHEMBL3608269, “Triazole-Linked Glycolipids Enhance the Susceptibility of MRSA to β-Lactam Antibiotics” (ACS Med Chem Lett, 2015).

In brackets after ≈: the same amount, converted by molar mass. Activity calls are given as the source filed them. The rule behind the calls is not given here. Bounds are passed on as bounds.

In assay [1] the test system is Staphylococcus aureus. The assay can be described thus: Antibacterial activity against methicillin-resistant Staphylococcus aureus ATCC 43300 after 20 to 24 hrs by CLSI method. Format: functional.
Assay [2] deals with Staphylococcus aureus. The assay can be described thus: Potentiation of oxacillin-mediated antibacterial activity against methicillin-resistant Staphylococcus aureus ATCC 43300 at 32 ug/ml after 20 to 24 hrs by CLSI method. It is filed as functional.
Assay [3] concerns Staphylococcus aureus. The assay can be described thus: Antibacterial activity against methicillin-resistant Staphylococcus aureus R36 clinical isolate after 20 to 24 hrs by CLSI method. It is filed as functional.
Assay [4] deals with Staphylococcus aureus. The assay can be described thus: Antibacterial activity against methicillin-resistant Staphylococcus aureus R15 clinical isolate after 20 to 24 hrs by CLSI method. It is filed as functional.
For assay [5], the system named is Staphylococcus aureus. The assay can be described thus: Antibacterial activity against methicillin-resistant Staphylococcus aureus ATCC 43300 assessed as change in bacterial surface at 2 ug/ml after 4 hrs by scanning electron microscopic analysis. It is filed as functional, organism-based.
The test system of assay [6] is Staphylococcus aureus. The assay can be described thus: Downregulation of mecA mRNA expression in methicillin-resistant Staphylococcus aureus ATCC 43300 at 2 ug/ml after 4 hrs by RT-PCR analysis. It is filed as functional, organism-based.
Assay [7] has as its system Staphylococcus aureus. The assay can be described thus: Antibacterial activity against methicillin-resistant Staphylococcus aureus R50 clinical isolate after 20 to 24 hrs by CLSI method. Format: functional.
Assay [8] has as its system Staphylococcus aureus. The assay can be described thus: Antibacterial activity against methicillin-resistant Staphylococcus aureus R308 clinical isolate after 20 to 24 hrs by CLSI method. Format: functional.
The subject of assay [9] is Staphylococcus aureus. The assay can be described thus: Antibacterial activity against methicillin-resistant Staphylococcus aureus R313 clinical isolate after 20 to 24 hrs by CLSI method. It is filed as functional.
Assay [10] relates to Staphylococcus aureus. The assay can be described thus: Antibacterial activity against methicillin-resistant Staphylococcus aureus R16 clinical isolate after 20 to 24 hrs by CLSI method. It is filed as functional.
Assay [11] has as its system Staphylococcus aureus. The assay can be described thus: Antibacterial activity against methicillin-resistant Staphylococcus aureus R304 clinical isolate after 20 to 24 hrs by CLSI method. It is filed as functional.
Assay [12] deals with Staphylococcus aureus. The assay can be described thus: Antibacterial activity against methicillin-resistant Staphylococcus aureus ATCC 43300 assessed as growth inhibition at 2 ug/ml after 24 hrs by Epsilometer test. Format: functional, organism-based.
Assay [13] deals with Staphylococcus aureus. The assay can be described thus: Antibacterial activity against methicillin-resistant Staphylococcus aureus R302 clinical isolate after 20 to 24 hrs by CLSI method. Format: functional.
Assay [14] has as its system Staphylococcus aureus. The assay can be described thus: Antibacterial activity against methicillin-resistant Staphylococcus aureus ATCC 43300 assessed as growth inhibition at 2 ug/ml measured up to 24 hrs by time kill assay. It is filed as functional, organism-based.
In assay [15] the test system is Staphylococcus aureus. The assay can be described thus: Antibacterial activity against methicillin-resistant Staphylococcus aureus R314 clinical isolate after 20 to 24 hrs by CLSI method. Format: functional.
For assay [16], the system named is Staphylococcus aureus. The assay can be described thus: Antibacterial activity against methicillin-resistant Staphylococcus aureus R53 clinical isolate after 20 to 24 hrs by CLSI method. It is filed as functional.
Assay [17] has as its system Staphylococcus aureus. The assay can be described thus: Antibacterial activity against methicillin-resistant Staphylococcus aureus R49 clinical isolate after 20 to 24 hrs by CLSI method. It is filed as functional.
Assay [18] concerns Staphylococcus aureus. The assay can be described thus: Antibacterial activity against methicillin-resistant Staphylococcus aureus R306 clinical isolate after 20 to 24 hrs by CLSI method. It is filed as functional.
For assay [19], the system named is Staphylococcus aureus. The assay can be described thus: Potentiation of oxacillin-mediated antibacterial activity against methicillin-resistant Staphylococcus aureus ATCC 43300 assessed as decrease in oxacillin MIC at 32 ug/ml after 20 to 24 hrs by CLSI method relative to control. It is filed as functional.

Turning to `CCCCCCCCCCCCO` [DODECANOL], the figures for the MIC in the assay on Staphylococcus aureus [1] and with Staphylococcus aureus [2] were greater than 256 µg/mL and greater than 32 µg/mL, respectively.

Turning to `Cc1onc(-c2ccccc2)c1C(=O)N[C@@H]1C(=O)N2[C@@H]1SC(C)(C)[C@@H]2C(=O)O` [OXACILLIN], the MIC with Staphylococcus aureus [3] amounted to 128 µg/mL (≈ 319 µM); against Staphylococcus aureus [4], 256 µg/mL (≈ 638 µM); against Staphylococcus aureus [1], 64 µg/mL (≈ 159 µM); with Staphylococcus aureus [7] it was 8 µg/mL (≈ 19.9 µM); with Staphylococcus aureus [8], 1020 µg/mL (≈ 2550 µM); with Staphylococcus aureus [9], 16 µg/mL (≈ 39.9 µM). Also, the MIC in the assay on Staphylococcus aureus [10] is no less than 256 µg/mL; against Staphylococcus aureus [11] it was 512 µg/mL (≈ 1280 µM); in the assay on Staphylococcus aureus [13] it was 512 µg/mL (≈ 1280 µM); in the assay on Staphylococcus aureus [15] it was 512 µg/mL (≈ 1280 µM); in the assay on Staphylococcus aureus [16], 8 µg/mL (≈ 19.9 µM); in the assay with Staphylococcus aureus [17], 8 µg/mL (≈ 19.9 µM). Moreover, the MIC in the assay on Staphylococcus aureus [18] was found to be 512 µg/mL (≈ 1280 µM). Moreover, the outcome with Staphylococcus aureus [5] and in the assay on Staphylococcus aureus [6] was inactive. The “growth inhibition (GI)” value in the assay with Staphylococcus aureus [12] and in the assay with Staphylococcus aureus [14] was “inactive” throughout.

As to `CCCCCCCCCCCCCCOCc1cn([C@@H]2O[C@H](CO)[C@H](O)[C@H](O)[C@H]2O)nn1`, in the assay on Staphylococcus aureus [19], the “fold change (FC)” value is reported as 32. Besides, the results for the MIC against Staphylococcus aureus [1] and with Staphylococcus aureus [2] were 256 µg/mL (≈ 559 µM) and 8 µg/mL, respectively.

For `CCCCCCCCCCCCCCOCc1cn([C@@H]2O[C@H](CO)[C@@H](O)[C@H](O)[C@H]2O)nn1`, the “fold change (FC)” value in the assay on Staphylococcus aureus [19] is reported as 64. The MIC came to 256 µg/mL (≈ 559 µM) against Staphylococcus aureus [1] and 4 µg/mL with Staphylococcus aureus [2].

Consider `CCCCCCCCCCCCCCCCO` [CETYL ALCOHOL], for which the results for the MIC with Staphylococcus aureus [1] and in the assay on Staphylococcus aureus [2] were greater than 256 µg/mL and greater than 32 µg/mL, respectively.

As to `CCCCCCCCCCCCCCO` [MYRISTYL ALCOHOL], the figures for the MIC against Staphylococcus aureus [1] and with Staphylococcus aureus [2] were greater than 256 µg/mL and greater than 32 µg/mL, respectively.

In the case of `CCCCCCCCCCCCCCCCCCO` [CETOSTEARYL ALCOHOL], the results for the MIC in the assay with Staphylococcus aureus [1] and with Staphylococcus aureus [2] were greater than 256 µg/mL and greater than 32 µg/mL, respectively.

Take `CCCCCCCCCCO` [DECANOL]: the MIC against Staphylococcus aureus [1] is greater than 256 µg/mL; in the assay on Staphylococcus aureus [2], greater than 32 µg/mL.

Turning to `CCCCCCCCO` [OCTANOL], the results for the MIC with Staphylococcus aureus [1] and with Staphylococcus aureus [2] were greater than 256 µg/mL and greater than 32 µg/mL, respectively.

For the molecule `CCCCCCO` [1-HEXANOL], the MIC in the assay with Staphylococcus aureus [1] is greater than 256 µg/mL; in the assay on Staphylococcus aureus [2], greater than 32 µg/mL.

Turning to `CCCCCCCCCCCCOCc1cn([C@@H]2O[C@H](CO)[C@@H](O)[C@H](O)[C@@H]2O)nn1`, the “fold change (FC)” value with Staphylococcus aureus [19] is given as 64. The MIC is 256 µg/mL (≈ 596 µM) against Staphylococcus aureus [1] and 4 µg/mL with Staphylococcus aureus [2].

With `CCCCCCCCCCCCCCO[C@@H]1O[C@H](CO)[C@@H](O)[C@H](O)[C@H]1O`, the MIC is greater than 256 µg/mL against Staphylococcus aureus [1] and greater than 32 µg/mL in the assay on Staphylococcus aureus [2].

With `CCCCCCCCCCCCCCCCOCc1cn([C@@H]2O[C@H](CO)[C@H](O)[C@H](O)[C@H]2O)nn1`, the “fold change (FC)” value in the assay with Staphylococcus aureus [19] was determined as 16. The MIC in the assay on Staphylococcus aureus [1] turned out to be 256 µg/mL (≈ 527 µM); in the assay with Staphylococcus aureus [2], 16 µg/mL.

In the case of `CCCCCCCCCCCCCCCCO[C@@H]1O[C@H](CO)[C@@H](O)[C@H](O)[C@H]1O`, the results for the MIC in the assay with Staphylococcus aureus [1] and in the assay with Staphylococcus aureus [2] were greater than 256 µg/mL and greater than 32 µg/mL, respectively.
